The text below walks through data of patent US9040528B2, “Chemical compounds 542” (AstraZeneca AB, priority 2008, dated 2015).

For orientation: IC50 means the concentration at which inhibition is half-maximal.

SMILES strings stand for the structures.

The target in this assay is Escherichia coli DNA gyrase A/B tetramer (Escherichia coli (strain K12), UniProt P0AES4+P0AES6). Kind of assay: DNA gyrase supercoiling activity fluorescence polarisation assay. The settings on record: 5 nM enzyme, relaxed plasmid, 0.3 mM ATP, ambient temperature; read-out: E. coli DNA gyrase supercoiling IC50. In kind it is biochemical. In a few lines: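 Supercoiling reactions quenched with 40 nM 5′-BODIPY-FL triplex-forming oligonucleotide probe in pH 3.5 NaCl/sodium acetate buffer; after 60 min, fluorescence anisotropy read (ex 485/em 535 nm). IC50 by nonlinear regression, normalised to 0.8% DMSO (100% activity) and 5 μM ciprofloxacin (0% activity).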
Background: In fluorescence polarisation assays a small probe gives low polarisation when free and higher when bound to something large.
Consider `C[C@@H]1CN2c3c(cc4c(-c5ccnc(NCCO)n5)noc4c3F)CC3(C(=O)NC(=O)NC3=O)[C@H]2[C@H](C)O1` [Example 171, (2R,4S,4aS)-11-fluoro-8-(2-(2-hydroxyethylamino)pyrimidin-4-yl)-2,4-dimethyl-2,4,4a,6-tetrahydro-1H,1′H-spiro[isoxazolo[4,5-g][1,4]oxazino[4,3-a]quinoline-5,5′-pyrimidine]-2′,4′,6′(3′H)-trione], for which the IC50 stood at 300 nM. On to `COc1nccc(-c2noc3c(F)c4c(cc23)CC2(C(=O)NC(=O)NC2=O)[C@H]2[C@H](C)O[C@H](C)CN42)n1` [Example 172, (2R,4S,4aS)-11-fluoro-8-(2-methoxypyrimidin-4-yl)-2,4-dimethyl-2,4,4a,6-tetrahydro-1H,1′H-spiro[isoxazolo[4,5-g][1,4]oxazino[4,3-a]quinoline-5,5′-pyrimidine]-2′,4′,6′(3′H)-trione], for which the IC50 came out at 900 nM. As for `C[C@@H]1CN2c3c(cc4c(-c5ccnc(C#N)n5)noc4c3F)CC3(C(=O)NC(=O)NC3=O)[C@H]2[C@H](C)O1` [Example 173, 4-((2R,4S,4aS)-11-fluoro-2,4-dimethyl-2′,4′,6′-trioxo-2,2′,3′,4,4a,4′,6,6′-octahydro-1H,1′H-spiro[isoxazolo[4,5-g][1,4]oxazino[4,3-a]quinoline-5,5′-pyrimidine]-8-yl)pyrimidine-2-carbonitrile], the figure is 100 nM; as for `C[C@@H]1CN2c3c(cc4c(-c5ccnc(N)n5)noc4c3F)CC3(C(=O)NC(=O)NC3=O)[C@H]2[C@H](C)O1` [Example 174, (2R,4S,4aS)-8-(2-aminopyrimidin-4-yl)-11-fluoro-2,4-dimethyl-2,4,4a,6-tetrahydro-1H,1′H-spiro[isoxazolo[4,5-g][1,4]oxazino[4,3-a]quinoline-5,5′-pyrimidine]-2′,4′,6′(3′H)-trione], 500 nM; as for `C[C@@H]1CN2c3c(cc4c(-c5ccnc(O)n5)noc4c3F)CC3(C(=O)NC(=O)NC3=O)[C@H]2[C@H](C)O1` [Example 175, (2R,4S,4aS)-11-fluoro-8-(2-hydroxypyrimidin-4-yl)-2,4-dimethyl-1,2,4,4a-tetrahydro-2′H,6H-spiro[isoxazolo[4,5-g][1,4]oxazino[4,3-a]quinoline-5,5′-pyrimidine]-2′,4′,6′(1′H,3′H)-trione], 900 nM. Consider `C[C@@H]1CN2c3c(cc4c(-c5ccnc(N6CCOCC6)n5)noc4c3F)CC3(C(=O)NC(=O)NC3=O)[C@H]2[C@H](C)O1` [Example 176, (2R,4S,4aS)-11-fluoro-2,4-dimethyl-8-(2-morpholinopyrimidin-4-yl)-2,4,4a,6-tetrahydro-1H,1′H-spiro[isoxazolo[4,5-g][1,4]oxazino[4,3-a]quinoline-5,5′-pyrimidine]-2′,4′,6′(3′H)-trione], for which the concentration for half-maximal inhibition (IC50) amounted to 3200 nM.

With `C[C@@H]1CN2c3c(cc4c(-c5ncnn5C)noc4c3F)CC3(C(=O)NC(=O)NC3=O)[C@H]2[C@H](C)O1` [Example 178, (2R,4S,4aS)-11-fluoro-2,4-dimethyl-8-(1-methyl-1H-1,2,4-triazol-5-yl)-2,4,4a,6-tetrahydro-1H,1′H-spiro[isoxazolo[4,5-g][1,4]oxazino[4,3-a]quinoline-5,5′-pyrimidine]-2′,4′,6′(3′H)-trione], the IC50 stood at 1300 nM.
